Experimental data: patent US20240366609A1 (Genentech, Inc., priority 2021, published 2024)

Legend:
[1] = tested on: SK-MEL-30 melanoma cell line harboring NRAS^Q61K mutation; experiment: SK-MEL-30 xenograft, belvarafenib and binimetinib (Example 9); format: in vivo, mice; conditions: 21 days
[2] = plasma protein binding of cobimetinib; format: in vitro ADME; conditions: concentration-independent
[3] = Phase 1a/b study NCT03284502: pharmacokinetic analysis; format: in vivo, human; conditions: steady-state, dose normalized
[4] = tested on: SK-MEL-30 human melanoma cell line harboring NRAS^Q61K mutation; conditions: mouse, in vivo, po
Experimental: (§1) Tumor volume in mm^3 and body weight change were measured at days 1, 4, 9 and 15.
(§2) Maximum inhibition rate (max inhib (%)) was determined by (1−(mean relative tumor weight in treated group/mean relative tumor weight control group))*100.

[5] = clinical pharmacokinetics of cobimetinib; conditions: for half-life: oral administration
[6] = tested on: SK-MEL-30 human melanoma cell line harboring NRAS^Q61K mutation; experiment: SK-MEL-30 xenograft, belvarafenib and cobimetinib (Example 7); conditions: 10 mg/kg QD orally, 14 days
Experimental: as §1, §2

[7] = tested on: Calu-6 NSCLC cell line harboring KRAS^Q61K mutation; experiment: Calu-6 xenograft, belvarafenib and selumetinib (Example 10); format: in vivo, mice; conditions: 17 days
[8] = atezolizumab Study PCD4989g; format: in vivo, human; conditions: single agent
Experimental: The pharmacokinetics of atezolizumab administered as a single agent have been characterized based on clinical data from study PCD4989g and are consistent with a currently ongoing Phase III Study WO29522 in first line treatment of TNBC. Atezolizumab anti-tumor activity has been observed across doses from 1 to 20 mg/kg. […] Atezolizumab dosing schedules of q3w and q2w have been tested. A fixed dose of atezolizumab 800 mg every two weeks (q2w) (equivalent to a body weight-based dose of 10 mg/kg q2w) results in equivalent exposure to the Phase III dose of 1200 mg administered every three weeks (q3w). The q3w schedule is being used in multiple Phase III studies of atezolizumab monotherapy across multiple tumor types and the q2w predominantly used in combination with chemotherapy regimens.

[9] = tested on: melanoma; conditions: patients who have previously undergone anti-PD-1 treatment; cited from earlier work
[10] = tested on: advanced melanoma; conditions: cited from earlier work

## Cn1cnc2c(F)c(Nc3ccc(Br)cc3F)c(C(=O)NOCCO)cc21 [Binimetinib]
[1]; 10 mg/kg QD orally
  Day for max inhib: Day 21
  Max inhib. Rate (%): 13.6%
  Max weight loss (%): 0.8%
[1]; 30 mg/kg QD orally
  Day for max inhib: Day 21
  Max inhib. Rate (%): 27.1%
[1]; single agent, 10 and 30 mg/kg q.d.
  tolerability: well tolerated without marked body weight loss

## O=C(c1ccc(F)c(F)c1Nc1ccc(I)cc1F)N1CC(O)([C@@H]2CCCCN2)C1 [Cobimetinib, (S)-[3,4-Difluoro-2-(2-fluoro-4-iodophenylamino)phenyl][3-hydroxy-3-(piperidin-2-yl)azetidin-1-yl]methanone]
[2]
  binding to plasma proteins: 95%
[3]
  drug-drug interaction with belvarafenib impacting cobimetinib exposure: no apparent drug-drug interaction
[4]
  tolerability: well tolerated without body weight loss
[5]; healthy subjects
  pharmacokinetics in the fed state compared with the fasted state: not altered
[5]; human, in vivo, oral
  bioavailability: 45.9%
[5]; human, in vivo, po
  Tmax: 1 to 3 h
[5]; human, in vivo, po, mean terminal half-life (t½)
  half-life: 48.8 h
[5]; human, in vivo, po, terminal half-life (t½), range
  half-life: 23.1 to 80 h
[5]; presence or absence of a high-fat meal
  effect of the proton pump inhibitor rabeprazole on cobimetinib pharmacokinetics: minimal effect
[6]
  Day for max inhib: Day 15
  Max inhib. Rate (%): 54.3%

## Cn1cnc2c(F)c(Nc3ccc(Br)cc3Cl)c(C(=O)NOCCO)cc21 [Selumetinib, reference compound]
[7]; 5 mg/kg BID orally
  Day for max inhib: Day 18
  Max inhib. Rate (%): 59.0%
  Max weight loss (%): 1.5%
[7]; single agent
  tolerability: well tolerated with or without minimal body weight loss

## Atezolizumab: humanized IgG1 monoclonal antibody that targets PD-L1
[8]
  Kaplan-Meier estimated overall 24-week progression-free survival (PFS) rate: 33%

## ipilimumab: anti-CTLA4 immunotherapy agent
[9]
  response rate: approximately 15%

## nivolumab: anti-PD-1 immunotherapy agent, monotherapy arm of a Phase III trial
[10]; 5 years minimum follow-up
  median OS: 36.9 months
[10]; Phase III trial of 1296 patients
  PFS: 6.9 months
